Test system: human nerve extract
Experiment: Phage display selection on plates coated with human nerve extract (Plated Nerve2), NextGen sequence counts
Type: binding
Conditions: unique sequence count (relative enrichment); Plated Nerve2 only
Procedure: Several m13 phage libraries were constructed expressing randomized variants of a parent peptide (QVPWEEPYYVVKKS-SGGL; SEQ ID NO: 576). In particular, the first 14 amino acids of the parent peptide were randomized using degenerate oligonucleotide synthesis to obtain a diverse set of peptides with a mutation rate of about 50% per residue.
To accomplish this, synthesis was carried out by the XXK codon design approach, where X is any base and K is G or T. To bias synthesis towards the parent sequence, synthesis was carried out at each X position with a mixture of about 70%-85% of the parent nucleotide and 15-30% of the remaining 3 nucleotides. The resulting molecules were inserted into fADL-1e (Antibody Design Laboratories), which is a type 3 phage display vector having a cloning site on the N-terminal side of the full-length gene III protein. The fusion proteins are directed to the periplasm by the PelB leader peptide, which is inserted in the vector […].
Collectively, the phage display libraries used in the screens comprised about 600 million peptides, with sequencing analysis confirming a mutation rate of about 50% per residue.
Phage libraries were independently processed, as follows, with five biological samples: two independent samples of excised human nerve tissue, one sample of a human nerve extract, and two independent samples of human muscle tissue, as follows:
Human Nerve Extracts: Phage libraries were incubated for up to 24 hours at 4° C. in 96 well plates that had been coated with a human nerve extract. Plates were then washed with PBS and phage were eluted using 0.2M glycine pH 2.0. Phage supernatants where then neutralized with Tris pH 9.0 prior to plating on TG1 bacteria and LB agar plates. Colonies were counted to determine titer followed by DNA preparation of pools of phage and NextGen sequencing. After rounds of selection, phage were pooled and amplified for iterative selection. Phage that eluted by 0.2M glycine pH 2.0 (the nerve binders) at each round were sequenced. NextGen sequencing of pools after 2, 3 and 4 rounds of selection were used to isolate candidate sequences that were further analyzed using bioinformatics.
NextGen sequencing of pools after 2, 3 and 4 rounds of selection were used to isolate candidate sequences from each of the five samples. These five data sets were then analyzed as described in the next section.
Peptide and vector sequences were translated starting at the first start codon in the nucleotide sequence. […] Trimmed peptides with identical sequences were combined and quantified according to their frequency (count).
Following processing, an R script was written to merge the unique peptide sequences (with counts 6 or greater) from the 5 different data sets to analyze the overlap between nerve and muscle binding activity.
For the single Nerve2, Nerve3, and Plated Nerve2 (pn2) subsets, the number of counts for each group was set at a threshold giving rise to at least 100 peptides. […] As highlighted in yellow in FIG. 1B, the representative group also included 6 unique peptides overlapping between nerve2 and nerve3, 200 unique peptides overlapping between nerve2 and plated nerve2 (at least 60 counts), 4 unique peptides overlapping between nerve3 and plated nerve2. Finally, as highlighted in green in FIG. 1B, the representative group also included […] common to the nerve2, nerve3, and plated nerve2 sets.

Row | Substance | Count
1 | 489 (QFPGEESHYVVRNS) [compound 489] | 51
2 | 511 (QLPWHEAFFGVNNG) [compound 511] | 44
3 | 536 (QLPSQTQNYYDTNA) [compound 536] | 38
4 | 479 (QITSVDPSSLAYRS) [compound 479] | 53
5 | 557 (QLPTNDPYYVLMES) [compound 557] | 36
6 | 548 (EFPYQESEYIVKQS) [compound 548] | 36
7 | 538 (SVAGQQHYYVSTKP) [compound 538] | 38
8 | 521 (QLPWEGPYYIVKKS) [compound 521] | 41
9 | 529 (QVPCEQQSCVVKNS) [compound 529] | 39
10 | 547 (DVPNDLPSYLVKNS) [compound 547] | 36
11 | 500 (QFPWETSYYIVKNS) [compound 500] | 47
12 | 499 (QFPLFTTFYNVEES) [compound 499] | 47
13 | 480 (QMPSGAPYDATLNS) [compound 480] | 53
14 | 508 (QIPSEEPNYILKSS) [compound 508] | 45
15 | 488 (DVPWPAPYYAVSKY) [compound 488] | 51
16 | 551 (HVQWDQTSYVVKNS) [compound 551] | 36
17 | 462 (HLSREGTYYAVKQP) [compound 462] | 64
18 | 482 (QSPFDETAYGLTHS) [compound 482] | 53
19 | 505 (HFRGPEPYKFVENP) [compound 505] | 45
20 | 450 (QFAWSQSYAYSSTT) [compound 450] | 107
21 | 459 (HVSCEVPCYGALAS) [compound 459] | 66
22 | 513 (HVPSYAPNYEIKES) [compound 513] | 43
23 | 506 (HVPWEGPEYIVTQS) [compound 506] | 45
24 | 467 (QITSDKPYYVVKNS) [compound 467] | 60

— patent publication US20240207422A1, “NERVE TARGETING PEPTIDE CONJUGATES AND METHODS OF USE” (Alume Biosciences, Inc., priority 2022, published 2024)
